# Values joined by “and” are separate entries in the source; they are usually repeats but may differ in a detail not shown here. Equal entries are not always repeated. Where two headings read alike, the source gives them in different places.
# B1: pegfilgrastim: colony-stimulating factor that acts on hematopoietic cells by binding to specific cell surface receptors (protein, chains of the INN, looked up)
# chain: TPLGPASSLPQSFLLKCLEQVRKIQGDGAALQEKLCATYKLCHPEELVLLGHSLGIPWAPLSSCPSQALQLAGCLSQLHSGLFLYQGLLQALEGISPELGPTLDTLQLDVADFATTIWQQMEELGMAPALQPTQGAMPAFASAFQRRAGGVLVASHLQSFLEVSYRVLRHLAQP
# modifications: PEG
# B2: G-CSF: Granulocyte-colony stimulating factor: compounds or factors that stimulate proliferation, differentiation, commitment and end cell functional activation of granulocytes (protein, UniProt P09919 31-207, looked up)
# Granulocyte …: TPLGPASSLPQSFLLKCLEQVRKIQGDGAALQEKLVSECATYKLCHPEELVLLGHSLGIPWAPLSSCPSQALQLAGCLSQLHSGLFLYQGLLQALEGISPELGPTLDTLQLDVADFATTIWQQMEELGMAPALQPTQGAMPAFASAFQRRAGGVLVASHLQSFLEVSYRVLRHLAQP
# Columns and labels:
# [1] = system: patients (docetaxel-induced neutropenia); conditions: for proportion of patients with Grade 4 neutropenia: Cycle 1, docetaxel treatment alone vs addition of plinabulin to docetaxel, ANC <0.5×10^9/L, p<0.0003
# [2] = system: neutropenia caused by chemotherapies; assay: Animal model studies of chemotherapy-caused neutropenia; assay type: in vivo; conditions: docetaxel, cisplatin, adriamycin, cyclosphosphamide, topotecan, gemcitabine
# [3] = system: Patients with solid tumors; assay: Plinabulin monotherapy in patients with solid tumors, laboratory parameters; assay type: in vivo, human; conditions: in the absence of chemotherapy
# [4] = system: NSCLC patients (pts) with a measurable lesion; assay: Phase 2 trial, addition of Plinabulin to Docetaxel in NSCLC patients; conditions: human, in vivo
# patients [5] = conditions: Plinabulin
# [6] = system: patients with solid tumors receiving docetaxel myelosuppressive chemotherapy; assay: Example 1: randomized, double blind study, plinabulin versus pegfilgrastim with docetaxel; assay type: in vivo, human; conditions: for change of neutrophil count through time (FIG. 1): after docetaxel 75 mg/m^2, pegfilgrastim 6 mg, plinabulin 5, 10, 20 mg/m^2
# Experimental: A randomized, double blind study to evaluate duration of severe neutropenia with plinabulin versus pegfilgrastim in patients with solid tumors receiving docetaxel myelosuppressive chemotherapy was performed. Patients were randomly assigned to the following arms (with the respective sample sizes): Arm 1: Docetaxel (75 mg/m^2)+Pegfilgrastim (6 mg) (n=14); Arm 2: Docetaxel (75 mg/m^2)+Plinabulin (20 mg/m^2) (n=14); Arm 3: Docetaxel (75 mg/m^2)+Plinabulin (10 mg/m^2) (n=14); and Arm 4: Docetaxel (75 mg/m^2)+Plinabulin (5 mg/m^2) (n=13).
# patients [7] = conditions: most common adverse reactions; cited from earlier work
# [8] = system: Patients with first line breast cancer receiving TAC; assay: Example 2: Phase 2 open label study, plinabulin and pegfilgrastim after TAC; assay type: in vivo, human; conditions: pegfilgrastim 6 mg
# Experimental: A multicenter, randomized study, involving G-CSF and plinabulin was performed. The Phase 2 portion was randomized and open label. The decision to complete the Phase 2 portion of the study as open label was made to reduce the complexities of study conduct and to allow for the assessment, via QoL, of same-day plinabulin dosing (i.e on the day of chemotherapy dosing) versus next day dosing with G-CSF. Patients with first line breast cancer were enrolled in the study.
# Patients received up to 4 cycles of a docetaxel/doxorubicin/cyclophosphamide based chemotherapy regimen, every 3 weeks (21 days). On Day 1 of Cycle 1, all patients receive docetaxel (75 mg/m^2), doxorubicin (50 mg/m^2), and cyclophosphamide (500 mg/m^2)-Taxotere, Adriamycin and cyclophosphamide (TAC).
# During Cycles 2 to 4, the doxorubicin component may be omitted at the discretion of the investigator, i.e., TC can be administered instead of TAC.
# The eligibility of all patients was determined during a 28-day screening period.
# Phase 2 (Open Label): In Phase 2, patients were randomly assigned to one of the treatment arms, with the arm designation and planned intervention as shown in Table 2.
# Patients have been randomized to receive TAC (or TC for Cycles 2 to 4)+pegfilgrastim or a combination of plinabulin and pegfilgrastim in each of Arms 1, 2, 3, and 4.
# In Phase 2 (Open Label), Cycles 1 to 4 consisted of TAC (or TC for Cycles 2 to 4) administered IV on Day 1, every 21 days. Patients in Arms 2 and 3 received a single dose of plinabulin over 30 minutes (±5 minutes), 30 minutes after the end of the TAC (or TC for Cycles 2 to 4) infusion on Day 1. On Day 2 of each cycle (≥24 hours after completing chemotherapy) patients in […] received a single dose of pegfilgrastim (6.0 mg) (subcutaneous injection) in an open label treatment.
# Docetaxel: Docetaxel was administered at a dose of 75 mg/m2. Administration was carried out with a 1-hour IV infusion per institutional protocol at the dose prescribed by this clinical study protocol (75 mg/m2). Dexamethasone (16 mg per day administered as 8 mg twice daily, or as per institution standard) was given on the day before, the day of (Day 1), and the day following docetaxel infusion (Day 2).
# Doxorubicin: Doxorubicin was administered at a dose of 50 mg/m2. Doxorubicin is potentially cardiotoxic. Risk for doxorubicin cardiotoxicity increases with the cumulative lifetime dose of doxorubicin. At the doxorubicin dose and schedule in this study, patients received a cumulative doxorubicin dose of […] of body surface area, below the threshold for symptomatic cardiac dysfunction. Patients were monitored, per institutional standard, for doxorubicin cardiotoxicity.
# Cyclophosphamide: Cyclophosphamide was administered at a dose of 500 mg/m^2.
# TAC Regimen: All patients received 3 week cycles of TAC chemotherapy. In each cycle, doxorubicin (50 mg/m2) given as a 15-minute IV infusion was administered first, followed immediately by cyclophosphamide (500 mg/m2) given as a 30-minute IV infusion, and then by docetaxel (75 mg/m2) administered as 1-hour IV infusion (the infusion times stated are approximate).
# patients [9] = conditions: G-CSF, cited from earlier work
# [10] = Table 4, alone or with plinabulin 20 mg/m^2
# [11] = cycle 1 after TAC, breast cancer, alone or with plinabulin 20 mg/m^2
molecule,measurement,setting,value
"CC(=O)O[C@@]12CO[C@@H]1C[C@H](O)[C@@]1(C)C(=O)[C@H](O)C3=C(C)[C@@H](OC(=O)[C@H](O)[C@@H](NC(=O)OC(C)(C)C)c4ccccc4)C[C@@](O)([C@@H](OC(=O)c4ccccc4)[C@H]21)C3(C)C [docetaxel, reference compound]",proportion of patients with Grade 4 neutropenia,[1],33.3%
"CC(C)(C)c1[nH]cnc1/C=c1\[nH]c(=O)/c(=C/c2ccccc2)[nH]c1=O [Plinabulin, (3Z,6Z)-3-Benzylidene-6-{[5-(2-methyl-2-propanyl)-1H-imidazol-4-yl]methylene}-2,5-piperazinedione]",prevention of neutropenia caused by chemotherapies,[2],prevent neutropenia
same,changes in hematology or chemistry laboratory parameters,[3],did not experience any clinically significant deleterious changes
same,Immune-Related AEs (IR-AEs),[4],without increasing
same,Bone Pain (% of patients),patients [5],<4%
same,Hospitalization (% of patients),patients [5],6%
same,"Grade 3 transient hypertension, patients",[1]; 20 mg/m^2 plinabulin,5%
same,"Grade 3 transient hypertension, patients",[1]; 30 mg/m^2 plinabulin,20%
same,proportion of patients with Grade 4 neutropenia,[1],4.6%
same,"clinical sequelae associated with docetaxel-induced neutropenia (sepsis, infections, hospitalizations, docetaxel dose reductions, G-CSF use)","[1]; human, in vivo",reduced
same,"bone pain, patients",[1]; patients receiving plinabulin,4%
same,change of neutrophil count through time (FIG. 1),[6],started to rise again on day 10
same,treating neutropenia induced by chemotherapeutic agent,[6]; docetaxel 75 mg/m^2,effective
same,overshot of the ANC during recovery,[6]; in vivo,prevented
B1,"bone pain, patients",patients [7],31%
same,"pain in an extremity, patients",patients [7],9%
same,change of neutrophil count through time (FIG. 1),[6],began to drop after 10 days
same,Anti-cancer,[8]; [10],No
same,DSN (grade 3/4),[8]; [10],Well over 1 day
same,% neutropenia (grade 4),[8]; [11],57% and > 50%
same,DSN (grade 3/4),[8]; [11],1.4 ± 1.0
same,patients with NLR greater than 5 (FIG. 6),[8]; [11],76%
same,ANC nadir of median ANC (FIG. 2),"[8]; first 10 days of cycle 1, alone or with plinabulin 20 mg/m2",within the grade 3/4 neutropenia range
same,Median ANC Nadir,[8]; alone or with plinabulin 20 mg/m^2,0.47 10^9 cells/L
B2,Hospitalization (% of patients),patients [9],20%
same,Bone Pain (% of patients),patients [9]; footnote mark 1,>20%^1
